Measurements: patent publication EP1954678B1, “NOVEL NK1 AND NK2 ANTAGONISTS” (Abbott Products GmbH, priority 2005, dated 2007)

Key:
human NK2 receptors = molecular target: T1, human NK2 receptors (Homo sapiens, UniProt P21452); assay: Binding of the test substances to NK2 receptors in vitro ([3H]-SR 48968 displacement, CHO cell membranes); conditions: [3H]-SR 48968 as ligand; membranes of CHO cells expressing the human NK2 receptor; 90 min incubation; Ki calculated from IC50; read-out: pKi (NK2) (converted)
T1 construct: expressed in transfected cells; host or cells: CHO cells (membrane preparation)
T1 sequence (P21452 1-398): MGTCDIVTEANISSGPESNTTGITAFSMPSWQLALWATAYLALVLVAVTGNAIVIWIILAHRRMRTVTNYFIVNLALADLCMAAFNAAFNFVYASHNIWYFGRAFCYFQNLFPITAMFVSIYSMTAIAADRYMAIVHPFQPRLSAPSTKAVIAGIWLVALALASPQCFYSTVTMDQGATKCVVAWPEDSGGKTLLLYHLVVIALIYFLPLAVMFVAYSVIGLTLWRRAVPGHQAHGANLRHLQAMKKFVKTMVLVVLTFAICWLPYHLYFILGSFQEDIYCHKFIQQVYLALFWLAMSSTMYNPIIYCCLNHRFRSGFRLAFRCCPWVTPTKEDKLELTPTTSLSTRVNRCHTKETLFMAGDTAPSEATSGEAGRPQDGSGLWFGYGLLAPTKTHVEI
Method: The affinity of the test substances to human NK2 receptors was measured in vitro. The ability of the test substances to displace the selective NK2 receptor antagonist SR 48968 (= saredutant) used as reference ligand from its corresponding bond was determined.
The receptor binding studies were carried out with radioactively marked [^3H]-SR 48968 (from Amersham) as ligand. For the binding test, different samples of a membrane preparation of CHO cells (= egg cells of the Chinese hamster, Chinese hamster oocytes), which express the human NK2 receptor (for preparation, see N.P. Gerard et al., Journal of Biological Chemistry 265/33 (1990) 20455-20462), were incubated for 90 minutes (= min.) with a solution of the marked ligand, with the incubation mixtures containing no test substance or additions of different concentrations of test substance. Then in each case the membrane-bound ligands in the samples were separated from free ligands by filtration. The fraction remaining in the filter was washed several times with buffer solution, before its radioactivity was measured using a liquid scintillation counter. That concentration which effects half-maximum displacement of the bound reference ligand was determined as IC50 of the respective test substance. The inhibition constant (Ki value) of the test substance was calculated from the respective IC50 value, and was stated as the negative logarithmised value thereof (pKi).
If several measurements were performed, the average thereof was listed each time. The pKi value is a measurement of the affinity of the test substances to human NK2 receptors.

human NK1 receptors = molecular target: T2, human NK1 receptors (Homo sapiens, UniProt P25103); assay: Binding of the test substances to NK1 receptors in vitro ([3H]-Substance P displacement, CHO cell membranes); conditions: [3H]-Substance P as ligand; membranes of CHO cells expressing the human NK1 receptor; Ki calculated from IC50; read-out: pKi (NK1) (converted)
T2 construct: expressed in transfected cells; host or cells: CHO cells (membrane preparation)
T2 sequence (P25103 whole entry): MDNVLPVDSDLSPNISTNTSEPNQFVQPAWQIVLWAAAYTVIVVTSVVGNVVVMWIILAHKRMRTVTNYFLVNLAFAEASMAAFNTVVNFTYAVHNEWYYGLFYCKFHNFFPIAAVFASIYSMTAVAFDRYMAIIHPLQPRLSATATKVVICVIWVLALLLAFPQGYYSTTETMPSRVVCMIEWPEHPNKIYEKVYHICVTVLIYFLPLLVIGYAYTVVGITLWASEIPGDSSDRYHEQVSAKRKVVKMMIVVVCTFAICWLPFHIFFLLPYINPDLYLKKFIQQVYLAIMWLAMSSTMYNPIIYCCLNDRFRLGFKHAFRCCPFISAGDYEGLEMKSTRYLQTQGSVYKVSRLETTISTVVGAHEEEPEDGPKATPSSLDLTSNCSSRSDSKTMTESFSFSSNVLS
Method: In The Netherlands, the affinity of the test substances to human NK1 receptors was measured in vitro.
The receptor binding studies were performed with [^3H]-Substance P as ligand. For the binding test, different samples of a membrane preparation of CHO cells (= egg cells of the Chinese hamster, Chinese hamster oocytes), which express the human NK1 receptor ("Accession Number" of the associated nucleic acid sequence = M74290; "Accession Number" of the associated protein sequence = P25103; cf. Takeda, Y.; Chou, K. B., Takeda, J.; Sachais, B.S. and Krause, J. E; Biochemical and Biophysical Research Communications, 179(3) (1991) 1232 - 1240), were incubated with a solution of the marked ligand, with the incubation mixtures containing no test substance or additions of different concentrations of test substance. Then, separation of bound and free ligands was performed in each of the samples with the aid of glass-fibre filtration. The fraction remaining in the filter was washed several times with buffer solution and then the radioactivity of the fraction remaining in the filter was measured using a beta scintillation counter.
For the compounds of Examples 1 to 14, that concentration which effects half maximum displacement of the bound ligand was determined as IC50 of the respective test substance. From this, the corresponding inhibition constant (Ki value) of the test substance was calculated, and was stated as the negative common logarithm of the Ki value (= pKi value). The pKi value is a measurement of the affinity of the test substances to human NK1 receptors.

[1] = molecular target: T3, cloned human NK1 receptors (Homo sapiens, UniProt P25103); assay: Ca2+ measurements using FLIPR for NK1 activity in CHO cells; type: cell-based; conditions: substance P 10^-8 M as agonist; compound applied 7 min before; pA2 calculated from IC50
T3 construct: expressed in transfected cells
T3 sequence (P25103 whole entry): as above
Excerpt: (§1) The NK receptor is coupled to Gq.
(§2) All steps were done under sterile conditions. […] The results are summarized in table 5: Table 5: pA2 data for NK1 and NK2: […]

[2] = molecular target: T4, cloned human NK2 receptors (Homo sapiens, UniProt P21452); assay: Ca2+ measurements using FLIPR for NK2 activity in CHO cells; type: cell-based; conditions: NKA 10^-7 M as agonist; compound applied 7 min before; pA2 calculated from IC50
T4 construct: expressed in transfected cells
T4 sequence (P21452 1-398): T1 sequence (P21452 1-398)
Excerpt: as §1, §2

**Q.** `CN(C[C@@H](CCN1CCN([C@@H](c2ccco2)[C@H](O)[C@H](O)[C@H](O)CO)CC1)c1ccc(Cl)c(Cl)c1)C(=O)c1cc(C#N)cc2ccccc12` [Compound 3, 3-cyano-N-[(2S)-2-(3,4-dichlorophenyl)-4-{4-[(1R,2S,3S,4R)-1-(2-furyl)-2,3,4,5-tetrahydroxypentyl]piperazin-1-yl}butyl]-N-methyl-1-naphthamide] was tested. Which Ki (human NK2 receptors) did it give?
**A.** 63.1 nM

**Q.** And the Ki (human NK1 receptors)?
**A.** 1.58 nM

**Q.** How did the Ki (human NK2 receptors) turn out when `CN(C[C@@H](CCN1CCN([C@@H](c2ccsc2)[C@H](O)[C@H](O)[C@H](O)CO)CC1)c1ccc(Cl)c(Cl)c1)C(=O)c1cc(C#N)cc2ccccc12` [Compound 4, 3-cyano-N-[(2S)-2-(3,4-dichlorophenyl)-4-{4-[(1S,2S,3S,4R)-2,3,4,5-tetrahydroxy-1-(3-thienyl)pentyl]piperazin-1-yl}butyl]-N-methyl-1-naphthamide] was run?
**A.** 126 nM

**Q.** And the Ki (human NK1 receptors)?
**A.** 2.51 nM

**Q.** Which results are given for `CN(C[C@@H](CCN1CCN([C@@H](c2ccoc2)[C@H](O)CO)CC1)c1ccc(Cl)c(Cl)c1)C(=O)c1cc(C#N)cc2ccccc12` [Compound 12, 3-cyano-N-[(2S)-2-(3,4-dichlorophenyl)-4-{4-[(1S,2S)-1-(3-furyl)-2,3-dihydroxypropyl]piperazin-1-yl}butyl]-N-methyl-1-naphthamide]?
**A.** Ki (human NK2 receptors): 100 nM; Ki (human NK1 receptors): 10 nM

**Q.** Which Ki (human NK2 receptors) does the source give for `CN(C[C@@H](CCN1CCN(C(c2ccco2)C(O)CO)CC1)c1ccc(Cl)c(Cl)c1)C(=O)c1cc(C#N)cc2ccccc12` (stereo partly drawn) [Compound 14, 3-cyano-N-[(2S)-2-(3,4-dichlorophenyl)-4-{4-[1-(2-furyl)-2,3-dihydroxypropyl]piperazin-1-yl}butyl]-N-methyl-1-naphthamide] here?
**A.** 12.6 nM

**Q.** What about the Kb [1] of the same compound?
**A.** 0.398 nM

**Q.** And the Kb [2]?
**A.** 3.16 nM

**Q.** And the Ki (human NK1 receptors)?
**A.** 5.01 nM

**Q.** What does the source list for `COc1ccc([C@@H]([C@H](O)CO)N2CCN(CC[C@H](CN(C)C(=O)c3cc(C#N)cc4ccccc34)c3ccc(Cl)c(Cl)c3)CC2)cc1` [Compound 16, 3-cyano-N-[(2)-2-(3,4-dichlorophenyl)-4-{4-[(1S,2S)-2,3-dihydroxy-1-(4-methoxyohenyl)propyl]piperazin-1-yl}butyl]-N-methyl-1-naphthamide]?
**A.** pA2 (NK1) [1]: 9,3; pA2 (NK2) [2]: 9,1

**Q.** How did the Ki (human NK2 receptors) turn out when `CN(C[C@@H](CCN1CCN([C@@H](c2cc3ccccc3o2)[C@H](O)CO)CC1)c1ccc(Cl)c(Cl)c1)C(=O)c1cc(C#N)cc2ccccc12` [Compound 17, N-[(2S)-4-{4-[(1R,2S)-1-(1-benzofuran-2-yl)-2,3-dihydroxypropyl]piperazin-1-yl}-2-(3,4-dichlorophenyl)butyl]-3-cyano-N-methyl-1-naphthamide] was run?
**A.** 3160 nM

**Q.** And the Kb [1]?
**A.** 20 nM

**Q.** And the Kb [2]?
**A.** 20 nM

**Q.** And the Ki (human NK1 receptors)?
**A.** 31.6 nM

**Q.** How did the Ki (human NK2 receptors) turn out when `CN(C[C@@H](CCN1CCN([C@@H](c2ccc(Cl)s2)[C@H](O)CO)CC1)c1ccc(Cl)c(Cl)c1)C(=O)c1cc(C#N)cc2ccccc12` [Compound 18, N-[(2S)-4-{4-[(1R,2S)-1-(5-chloro-2-thienyl)-2,3-dihydroxypropyl]piperazin-1-yl}-2-(3,4-dichlorophenyl)butyl]-3-cyano-N-methyl-1-naphthamide] was run?
**A.** 158 nM

**Q.** And the Kb [1]?
**A.** 6.31 nM

**Q.** What about the Kb [2] of the same compound?
**A.** 2.51 nM

**Q.** And the Ki (human NK1 receptors)?
**A.** 3.16 nM

**Q.** `CN(C[C@@H](CCN1CCN([C@@H](c2ccc3c(c2)OCO3)[C@H](O)CO)CC1)c1ccc(Cl)c(Cl)c1)C(=O)c1cc(C#N)cc2ccccc12` [Compound 21, N-[(2S)-4-{4-[(1S,2S)-1-(1,3-benzodioxol-5-yl)-2,3-dihydroxypropyl]piperazin-1-yl}-2-(3,4-dichlorophenyl)butyl]-3-cyano-N-methyl-1-naphthamide] was tested. Which Ki (human NK2 receptors) did it give?
**A.** 398 nM

**Q.** And the Kb [1]?
**A.** 0.794 nM

**Q.** What about the Kb [2] of the same compound?
**A.** 0.316 nM

**Q.** What about the Ki (human NK1 receptors) of the same compound?
**A.** 2 nM

**Q.** `CN(C[C@@H](CCN1CCN([C@@H](c2cc3ccccc3s2)[C@H](O)CO)CC1)c1ccc(Cl)c(Cl)c1)C(=O)c1cc(C#N)cc2ccccc12` [Compound 22, N-[(2S)-4-{4-[(1R,2S)-1-(1-benzothien-2-yl)-2,3-dihydroxypropyl]piperazin-1-yl}-2-(3,4-dichlorophenyl)butyl]-3-cyano-N-methyl-1-naphthamide] was tested. Which Ki (human NK2 receptors) did it give?
**A.** 1000 nM

**Q.** What about the Kb [1] of the same compound?
**A.** 7.94 nM

**Q.** And the Kb [2]?
**A.** 3.16 nM

**Q.** What about the Ki (human NK1 receptors) of the same compound?
**A.** 3.98 nM

**Q.** `CN(CC(CCN1CCN(C(Cc2ccccc2)C(O)CO)CC1)c1ccc(Cl)c(Cl)c1)C(=O)c1cc(C#N)cc2ccccc12` (stereo not drawn) [Compound 24] was tested. Which “pA2 (NK1)” value [1] did it give?
**A.** 8,1

**Q.** What about the “pA2 (NK2)” value [2] of the same compound?
**A.** 7,8

**Q.** `CN(C[C@@H](CCN1CCN(C(CO)c2ccco2)CC1)c1ccc(Cl)c(Cl)c1)C(=O)c1cc(C#N)cc2ccccc12` (stereo partly drawn) [Compound 25, 3-cyano-N-[(2S)-2-(3,4-dichlorophenyl)-4-{4-[1-(2-furyl)-2-hydroxyethyl]piperazin-1-yl}butyl]-N-methyl-1-naphthamide] was tested. Which Ki (human NK2 receptors) did it give?
**A.** 39.8 nM

**Q.** What about the Kb [1] of the same compound?
**A.** 3.16 nM

**Q.** And the Kb [2]?
**A.** 1 nM

**Q.** And the Ki (human NK1 receptors)?
**A.** 7.94 nM

**Q.** Which results are given for `CC(=O)OCC(O)C(Cc1ccccc1)N1CCN(CCC(CN(C)C(=O)c2cc(C#N)cc3ccccc23)c2ccc(Cl)c(Cl)c2)CC1` (stereo not drawn) [Compound 26]?
**A.** pA2 (NK1) [1]: 8,0; pA2 (NK2) [2]: 7,4

**Q.** Which results are given for `CC(=O)OC[C@@H](OC(C)=O)[C@H](c1ccco1)N1CCN(CC[C@H](CN(C)C(=O)c2cc(C#N)cc3ccccc23)c2ccc(Cl)c(Cl)c2)CC1` [Compound 27, (2S,3R)-2-(acetyloxy)-3-{4-[(3S)-4-[3-cyano-1-naphthoyl)(methyl)amino]-3-(3,4-dichlorophenyl)butyl]piperazin-1-yl}-3-(2-furyl)propyl acetate]?
**A.** pA2 (NK1) [1]: 9,2; pA2 (NK2) [2]: 8,1

**Q.** How did the Ki (human NK2 receptors) turn out when `CN(C[C@@H](CCN1CCN(C(CO)c2ccco2)CC1)c1ccc(Cl)c(Cl)c1)C(=O)c1cc(C#N)cc2ccccc12` (stereo partly drawn) [Compound 28, 3-cyano-N-[(2S)-2-(3,4-dichlorophenyl)-4-{4-[1-(2-furyl)-2-hydroxyethyl]piperazin-1-yl}butyl]-N-methyl-1-naphthamide] was run?
**A.** 50.1 nM

**Q.** And the Kb [1]?
**A.** 2 nM

**Q.** What about the Kb [2] of the same compound?
**A.** 25.1 nM

**Q.** What about the Ki (human NK1 receptors) of the same compound?
**A.** 12.6 nM
